Earlier results, collected in US5900412A, “Percutaneous/transdermal delivery of ASA and antithrombotic therapies based thereon” (Luitpold Pharma GmbH, priority 1996, dated 1999).

CC(=O)Oc1ccccc1C(=O)O [ASA, acetylsalicylic acid]
acetylation and inactivation of cyclooxygenase (in words) (cyclooxygenase): irreversible acetylation, and consequently prolonged inactivation, of cyclooxygenase
duration of inhibition of thromboxane synthesis (life of the thrombocytes) (cyclooxygenase; blood platelets): 1 month
absolute bio-availability of ASA (following peroral administration): 50%-70
metabolism of ASA to SA (in words) (gastrointestinal fluids, absorption in stomach and intestine, blood plasma): rapidly metabolized to its principal metabolite SA
